Columns and labels:
[1] = molecular target: T1, Nuclear receptor subfamily 2 group E member 1 (Homo sapiens, UniProt Q9Y466); assay: Inverse agonist activity at TLX (unknown origin)
[2] = molecular target: T1, Nuclear receptor subfamily 2 group E member 1; assay: Inverse agonist activity at TLX (unknown origin) assessed as fold activation; settings: filed as inverse agonist
[3] = Antagonist activity at NFkappaB in rat RAW264.7 cells
[4] = molecular target: T2, Nuclear receptor subfamily 4immunitygroup A member 1 (Homo sapiens, UniProt P22736); assay: Inhibition of Gal4-fused Nur77 in HEK293T cells; format: cell-based
[5] = molecular target: T3, Nuclear receptor subfamily 4 group A member 2/Retinoic acid receptor RXR-alpha (Homo sapiens, UniProt P19793+P43354); assay: Inhibition of full-length Nurr1-RXRalpha in human SH-SY5Y cells; format: cell-based
[6] = Half life in ip dosed mouse; format: ADME, organism-based; settings: in vivo
[7] = Half life in ip dosed mouse brain; format: ADME, organism-based
[8] = molecular target: T4, Retinoic acid receptor RXR-alpha (Homo sapiens, UniProt P19793); assay: Inhibition of RXRalpha (unknown origin)
T4 sequence (P19793 whole entry): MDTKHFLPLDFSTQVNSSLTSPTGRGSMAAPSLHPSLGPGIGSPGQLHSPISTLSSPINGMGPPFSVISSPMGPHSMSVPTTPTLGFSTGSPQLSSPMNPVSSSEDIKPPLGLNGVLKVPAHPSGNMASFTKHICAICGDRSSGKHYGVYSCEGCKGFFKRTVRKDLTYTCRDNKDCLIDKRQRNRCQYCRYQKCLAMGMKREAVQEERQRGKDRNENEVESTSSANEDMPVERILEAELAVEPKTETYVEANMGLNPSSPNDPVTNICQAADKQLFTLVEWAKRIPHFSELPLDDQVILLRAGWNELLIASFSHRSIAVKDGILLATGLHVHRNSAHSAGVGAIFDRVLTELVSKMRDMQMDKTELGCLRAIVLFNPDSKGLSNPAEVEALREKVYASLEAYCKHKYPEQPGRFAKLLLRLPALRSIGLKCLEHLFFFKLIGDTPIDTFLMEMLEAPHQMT

[9] = molecular target: T5, Retinoic acid receptor RXR-beta (Homo sapiens, UniProt P28702); assay: Inhibition of RXRbeta (unknown origin)
T5 sequence (P28702 whole entry): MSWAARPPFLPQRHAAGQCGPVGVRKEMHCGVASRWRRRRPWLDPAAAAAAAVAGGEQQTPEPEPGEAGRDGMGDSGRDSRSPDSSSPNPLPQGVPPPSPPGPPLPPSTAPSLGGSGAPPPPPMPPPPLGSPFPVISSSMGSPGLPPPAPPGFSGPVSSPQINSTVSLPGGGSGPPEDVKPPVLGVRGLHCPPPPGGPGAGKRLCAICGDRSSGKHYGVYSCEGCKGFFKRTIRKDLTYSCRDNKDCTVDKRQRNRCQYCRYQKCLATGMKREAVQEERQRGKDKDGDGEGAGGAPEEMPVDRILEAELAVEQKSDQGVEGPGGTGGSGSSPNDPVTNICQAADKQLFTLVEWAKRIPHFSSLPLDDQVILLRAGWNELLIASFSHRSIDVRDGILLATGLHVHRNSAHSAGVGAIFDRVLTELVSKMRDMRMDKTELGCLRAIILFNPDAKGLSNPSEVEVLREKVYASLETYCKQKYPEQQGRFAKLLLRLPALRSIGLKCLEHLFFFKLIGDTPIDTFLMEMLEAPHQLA

[10] = molecular target: T6, Retinoic acid receptor RXR-gamma (Homo sapiens, UniProt P48443); assay: Inhibition of RXRgamma (unknown origin)
T6 sequence (P48443 whole entry): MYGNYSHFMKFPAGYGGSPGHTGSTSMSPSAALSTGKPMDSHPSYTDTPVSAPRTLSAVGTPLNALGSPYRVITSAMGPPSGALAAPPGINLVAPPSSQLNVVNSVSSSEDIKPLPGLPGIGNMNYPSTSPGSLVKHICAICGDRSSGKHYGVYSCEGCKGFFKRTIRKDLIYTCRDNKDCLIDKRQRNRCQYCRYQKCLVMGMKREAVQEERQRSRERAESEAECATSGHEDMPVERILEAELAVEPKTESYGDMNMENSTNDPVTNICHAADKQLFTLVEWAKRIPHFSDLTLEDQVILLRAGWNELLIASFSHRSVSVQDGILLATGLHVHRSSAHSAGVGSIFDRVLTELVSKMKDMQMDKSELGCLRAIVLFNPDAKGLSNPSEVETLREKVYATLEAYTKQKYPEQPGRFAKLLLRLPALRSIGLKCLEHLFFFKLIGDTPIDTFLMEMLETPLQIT

[11] = Inhibition of RXR (unknown origin)
[12] = molecular target: T2, Nuclear receptor subfamily 4immunitygroup A member 1; assay: Inhibition of full length Nur77 in HEK293T cells at 50 uM relative to control; format: cell-based
[13] = molecular target: Nuclear receptor subfamily 4 group A member 1 (Mus musculus) (UniProt P12813); assay: Inhibition of full length Nur77 in mouse MN9D cells at 50 uM relative to control; format: cell-based
Mus musculus = assay: Anti-alzheimer activity against APP/PS1 mouse assessed as decrease in A-beta levels in hippocampus at 100 mg/kg, po measured after 14 days by ELISA analysis relative to control; format: functional; parameters: scale not given: the % may be the effect or the level left; settings: time 14 day
[14] = molecular target: T2, Nuclear receptor subfamily 4immunitygroup A member 1; assay: Binding affinity to Nur77 (unknown origin) by SPR assay
[15] = molecular target: T2, Nuclear receptor subfamily 4immunitygroup A member 1; assay: Agonist activity at full length Nur77 in Normal human bronchial epithelial cell assessed as fold increase of receptor transactivation at 10 uM; format: cell-based; settings: filed as agonist
[16] = molecular target: T3, Nuclear receptor subfamily 4 group A member 2/Retinoic acid receptor RXR-alpha; assay: Inhibition of Nurr1-RXRalpha (unknown origin) by BRET assay; format: protein-complex assay
[17] = molecular target: T4, Retinoic acid receptor RXR-alpha; assay: Inhibition of RXRalpha (unknown origin) by BRET assay
Homo sapiens = species on record: Homo sapiens; assay: Selectivity ratio of IC50 for Nurr1-RXRalpha (unknown origin) to IC50 for RXRalpha (unknown origin) by BRET assay
[18] = molecular target: T4, Retinoic acid receptor RXR-alpha; assay: Antagonist activity at RXRalpha (unknown origin)
[19] = molecular target: T7, Retinoic acid receptor RXR-alpha (Homo sapiens) (UniProt P19793); assay: Agonist activity at RXRalpha (unknown origin) assessed as fold activation; settings: filed as agonist
T7 sequence (whole entry): T4 sequence (P19793 whole entry)

[20] = molecular target: T8, Retinoic acid receptor RXR-beta (Homo sapiens) (UniProt P28702); assay: Agonist activity at RXRbeta (unknown origin) assessed as fold activation; settings: filed as agonist
T8 sequence (whole entry): T5 sequence (P28702 whole entry)

[21] = molecular target: T9, Retinoic acid receptor RXR-gamma (Homo sapiens) (UniProt P48443); assay: Agonist activity at RXRgamma (unknown origin) assessed as fold activation; settings: filed as agonist
T9 sequence (whole entry): T6 sequence (P48443 whole entry)

T2 sequence (P22736 whole entry, the tested form may be a part): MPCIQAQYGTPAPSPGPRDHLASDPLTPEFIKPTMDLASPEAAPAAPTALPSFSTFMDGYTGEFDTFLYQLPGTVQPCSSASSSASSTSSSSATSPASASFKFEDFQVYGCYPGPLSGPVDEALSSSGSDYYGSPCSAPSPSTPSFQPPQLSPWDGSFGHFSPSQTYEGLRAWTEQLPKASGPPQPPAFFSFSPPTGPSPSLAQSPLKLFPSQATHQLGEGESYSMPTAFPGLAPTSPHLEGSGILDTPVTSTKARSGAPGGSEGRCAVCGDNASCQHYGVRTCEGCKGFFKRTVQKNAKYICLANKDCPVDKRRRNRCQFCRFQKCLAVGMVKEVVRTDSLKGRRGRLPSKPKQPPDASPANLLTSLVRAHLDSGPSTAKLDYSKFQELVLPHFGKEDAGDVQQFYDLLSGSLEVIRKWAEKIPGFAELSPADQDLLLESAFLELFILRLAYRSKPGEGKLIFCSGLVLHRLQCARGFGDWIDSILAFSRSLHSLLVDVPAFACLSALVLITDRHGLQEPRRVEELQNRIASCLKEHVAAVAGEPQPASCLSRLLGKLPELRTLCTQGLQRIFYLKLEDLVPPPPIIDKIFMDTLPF
T1 sequence (Q9Y466 whole entry): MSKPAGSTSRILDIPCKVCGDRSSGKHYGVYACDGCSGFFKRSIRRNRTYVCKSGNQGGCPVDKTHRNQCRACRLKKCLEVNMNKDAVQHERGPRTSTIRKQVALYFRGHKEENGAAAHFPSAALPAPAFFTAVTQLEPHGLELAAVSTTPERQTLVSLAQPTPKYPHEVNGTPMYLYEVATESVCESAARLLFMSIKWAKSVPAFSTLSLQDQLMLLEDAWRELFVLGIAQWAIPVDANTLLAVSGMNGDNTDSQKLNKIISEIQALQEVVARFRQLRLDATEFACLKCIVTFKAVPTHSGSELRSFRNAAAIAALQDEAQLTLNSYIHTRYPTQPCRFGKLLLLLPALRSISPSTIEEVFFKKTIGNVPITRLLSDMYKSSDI
T3 sequence (P43354 whole entry, one chain of several): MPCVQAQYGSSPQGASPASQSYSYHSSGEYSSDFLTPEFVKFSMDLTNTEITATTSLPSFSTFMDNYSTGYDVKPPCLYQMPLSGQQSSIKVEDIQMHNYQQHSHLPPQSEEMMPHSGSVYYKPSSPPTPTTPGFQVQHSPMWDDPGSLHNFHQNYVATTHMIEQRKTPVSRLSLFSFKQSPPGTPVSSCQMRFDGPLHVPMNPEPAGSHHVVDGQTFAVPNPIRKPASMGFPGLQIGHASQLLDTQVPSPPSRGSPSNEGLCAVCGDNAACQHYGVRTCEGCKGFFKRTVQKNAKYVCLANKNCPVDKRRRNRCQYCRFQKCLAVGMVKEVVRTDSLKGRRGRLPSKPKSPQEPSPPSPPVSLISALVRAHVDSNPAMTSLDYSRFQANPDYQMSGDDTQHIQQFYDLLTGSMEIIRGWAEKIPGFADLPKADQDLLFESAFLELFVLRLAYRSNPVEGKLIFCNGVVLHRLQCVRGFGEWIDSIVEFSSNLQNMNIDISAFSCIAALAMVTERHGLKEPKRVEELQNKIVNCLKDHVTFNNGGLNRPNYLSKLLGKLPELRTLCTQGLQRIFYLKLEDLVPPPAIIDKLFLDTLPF
Sequence of Nuclear receptor subfamily 4 group A member 1 (Mus musculus) (P12813 whole entry): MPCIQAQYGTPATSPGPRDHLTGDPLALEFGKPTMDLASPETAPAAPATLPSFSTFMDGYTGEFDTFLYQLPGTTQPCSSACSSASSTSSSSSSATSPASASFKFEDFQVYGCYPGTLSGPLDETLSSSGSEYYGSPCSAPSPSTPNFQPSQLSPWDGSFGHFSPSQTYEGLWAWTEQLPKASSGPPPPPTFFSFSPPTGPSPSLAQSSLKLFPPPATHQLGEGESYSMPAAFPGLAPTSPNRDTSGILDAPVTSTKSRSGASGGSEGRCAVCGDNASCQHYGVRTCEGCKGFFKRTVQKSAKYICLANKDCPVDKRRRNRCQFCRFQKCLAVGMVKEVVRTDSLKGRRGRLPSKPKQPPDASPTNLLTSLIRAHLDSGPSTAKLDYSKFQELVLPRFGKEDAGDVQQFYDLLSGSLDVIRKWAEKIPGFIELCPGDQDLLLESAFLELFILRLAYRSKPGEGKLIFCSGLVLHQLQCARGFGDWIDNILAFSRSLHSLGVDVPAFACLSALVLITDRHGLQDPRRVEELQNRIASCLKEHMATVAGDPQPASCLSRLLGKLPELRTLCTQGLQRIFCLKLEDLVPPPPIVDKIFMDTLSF

CC1=C(/C=C/C(C)=C/C=C/C(C)=C/C=O)C(C)(C)CCC1 [RETINAL]
EC50 [1]: 200 nM | fold change (FC) [2]: 4

CCCCCCCCC(=O)c1c(O)cc(O)cc1CC(=O)OCCCCC
IC50 [3]: 1600 nM

Cc1ccc(Cl)c(Nc2ccccc2C(=O)O)c1Cl [MECLOFENAMIC ACID]
EC50 [4]: 4700 nM | EC50 [5]: 900 nM | half-life [6]: 1.5 h | half-life [7]: 1.5 h

CC1(C)CC=C(c2ccccc2)c2cc(/C=C/c3ccc(C(=O)O)cc3)ccc21
EC50 [1]: 200 nM | fold change (FC) [2]: 5

CCN(c1ccc(C(=O)O)cc1)c1ccc(C(C)C)c(OCC(C)C)c1
EC50 [8]: 0.58 nM | EC50 [9]: 23 nM | EC50 [10]: 3 nM

Cc1cc2c(cc1C1(c3ccc(C(=O)O)cn3)CC1)C(C)(C)CCC2(C)C
EC50 [11]: 3 nM

CC/C=C\C/C=C\C/C=C\C/C=C\C/C=C\C/C=C\CCC(=O)O
inhibition [12]: 25% | inhibition [13]: 25%

C=C(c1ccc(C(=O)O)cc1)c1cc2c(cc1C)C(C)(C)CCC2(C)C [BEXAROTENE]
Activity (Mus musculus): 75%

CCCCC[C@H](O)/C=C/[C@H]1C=CC(=O)[C@@H]1C/C=C\CCCC(=O)O [PROSTAGLANDIN A2]
Kd [14]: 2050 nM | fold change (FC) [15]: 15

CC(C)c1cccc(-c2cc(/C=C/C(=O)O)ccc2O)c1
EC50 [16]: 0.794 nM | inhibition ([16]; concentration not given here): 129% | pEC50 [17]: 7.7 | Ratio IC50 (Homo sapiens): 25

CCN(c1ccc(C(=O)O)cc1)c1ccc(C(C)C)c(OC(C)C)c1
EC50 [8]: 32 nM | EC50 [9]: 36 nM | EC50 [10]: 376 nM

CCCCCOc1cc2c(cc1-c1cc(CCC(=O)O)ccc1O)C(C)(C)CCC2(C)C
EC50 [18]: 240 nM

CC1=C2[C@H](/C=C(\C)C(=O)O)CC[C@@H](C)[C@H]2CC1
fold change (FC) [19]: 9 | fold change (FC) [20]: 69 | fold change (FC) [21]: 4

O=C(O)c1ccc(-c2ccc3cc(O)c(C45CC6CC(CC(C6)C4)C5)cc3c2)cc1
EC50 [1]: 200 nM

From ChEMBL document CHEMBL5226323, “Targeting Nuclear Receptors in Neurodegeneration and Neuroinflammation” (J Med Chem, 2021)
